Laboratory results as given in patent US11938212B2, “Skin care compositions” (Colgate-Palmolive Company, priority 2022, dated 2024).

Tests used:
[1] = tested on: human derived keratinocytes; experiment: ROS detection in H2O2-treated human derived keratinocytes (Example 3: alpha-tocopherol, EGT, niacinamide); assay type: cell-based; conditions: alpha-tocopherol 0.001% as printed, EGT 0.01%, niacinamide 0.01%; for % Decrease in ROS generated in keratinocyte by antioxidant treatment: 0.3 wt.% H2O2; for Fold Change, decrease in ROS generated in keratinocyte by antioxidant treatment (relative to untreated): vs F (0.1% DMSO + 0.3% H2O2)
Description: Hydrogen peroxide treated cells were then treated with: alpha-tocopherol, ergothioneine and niacinamide, respectively and in combination.
Cellular ROS/Superoxide Detection Assay Kit (Abcam—ab139476)

[2] = tested on: human derived keratinocytes; experiment: ROS detection in H2O2-treated human derived keratinocytes (Example 2: alpha-tocopherol, EGT, sodium PCA); conditions: vs F (0.1 wt.% DMSO + 0.3 wt.% H2O2); alpha-tocopherol 0.001%, EGT 0.01%, Na PCA 0.01%; 30 min treatment
Description: Keratinocytes were treated with exogenous 0.3 wt. % hydrogen peroxide to induce reactive oxygen species (ROS) production. […] Changes in ROS production were assessed using a ROS Detection Assay Kit and fluorescence microplate reader.
Cell Culture Treatment • 500 uL of each treatment sample was directly applied to the 24-well plates and incubated for 30 mins. • Post incubation: each well was washed with the wash buffer (1×) provided. • 250 uL of green Fluorescent (GF) dye containing media (2.5 uL of GF dye/250 uL of media) was then added to each well and incubate for 60 mins. • Post incubation, Fluorescence was read on a microplate reader at 490/525.

SMILES	% Decrease in ROS generated in keratinocyte by antioxidant treatment [1] [%]	Fold Change, decrease in ROS generated in keratinocyte by antioxidant treatment (relative to untreated) [1]	Fold Change, decrease in ROS generated in keratinocyte by antioxidant treatment (relative to untreated) [2]
C[N+](C)(C)[C@@H](Cc1c[nH]c(=S)[nH]1)C(=O)[O-] [EGT, Ergothioneine]	15.91	0.31-fold fold decrease	4.43-fold decrease
O=C1CCC(C(=O)[O-])N1.[Na+] (stereo not drawn) [Na PCA, sodium pyrrolidone carboxylic acid]	25.75		2.25-fold decrease
NC(=O)c1cccnc1 [Niacinamide, niacinamide]		0.24-fold fold decrease	
Cc1c(C)c2c(c(C)c1O)CC[C@@](C)(CCC[C@H](C)CCC[C@H](C)CCCC(C)C)O2 [Alpha-tocopherol, alpha-tocopherol]	20.79	0.4-fold fold decrease	4.21-fold decrease
